# In ChEMBL document CHEMBL1201862, “PubChem BioAssay data set” (2004):
#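 Where inhibition never reached the appropriate level, the endpoint shown equals the highest concentration tested. Otherwise, values were interpolated linearly from a five-concentration, 48-hour dose response in 96-well plates. GI50 marks 50% less growth.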 Calls of active or inactive are those of the source. No stated cut-off is given here; in the data, active = GI50 up to about 1.1 µM and inactive = higher.
# Tests used:
# Experiment in all cases: NCI anticancer screen, dose series, 48 h
# 786-0 = test system: 786-0
# A498 = test system: A498
# A549 = test system: A549
# ACHN = test system: ACHN
# BT-549 = test system: BT-549
# CAKI-1 = test system: CAKI-1
# CCRF-CEM = test system: CCRF-CEM
# COLO 205 = test system: COLO 205
# EKVX = test system: EKVX
# HCC 2998 = test system: HCC 2998
# HCT-116 = test system: HCT-116
# HCT-15 = test system: HCT-15
# HOP-62 = test system: HOP-62
# HOP-92 = test system: HOP-92
# IGROV-1 = test system: IGROV-1
# K562 = test system: K562
# KM12 = test system: KM12
# LOX IMVI = test system: LOX IMVI
# M14 = test system: M14
# MCF7 = test system: MCF7
# MDA-MB-231 = test system: MDA-MB-231
# MDA-MB-435 = test system: MDA-MB-435
# MDA-N = test system: MDA-N
# MOLT-4 = test system: MOLT-4
# Malme-3M = test system: Malme-3M
# NCI-H226 = test system: NCI-H226
# NCI-H23 = test system: NCI-H23
# NCI-H522 = test system: NCI-H522
# NCI/ADR-RES = test system: NCI/ADR-RES
# OVCAR-3 = test system: OVCAR-3
# OVCAR-4 = test system: OVCAR-4
# OVCAR-5 = test system: OVCAR-5
# OVCAR-8 = test system: OVCAR-8
# PC-3 = test system: PC-3
# RPMI-8226 = test system: RPMI-8226
# SF-295 = test system: SF-295
# SF-539 = test system: SF-539
# SK-MEL-28 = test system: SK-MEL-28
# SK-MEL-2 = test system: SK-MEL-2
# SK-MEL-5 = test system: SK-MEL-5
# SK-OV-3 = test system: SK-OV-3
# SN12C = test system: SN12C
# SNB-75 = test system: SNB-75
# SR = test system: SR
# SW-620 = test system: SW-620
# T47D = test system: T47D
# TK-10 = test system: TK-10
# U-251 = test system: U-251
# UACC-257 = test system: UACC-257
# UACC-62 = test system: UACC-62
# UO-31 = test system: UO-31
# DU-145 = test system: DU-145
# HT-29 = test system: HT-29
# Hs-578T = test system: Hs-578T
# NCI-H460 = test system: NCI-H460
# RXF 393 = test system: RXF 393
# SF-268 = test system: SF-268
# SNB-19 = test system: SNB-19
# HL-60 = test system: HL-60
smiles,measurement,setting,value
COc1ccc(NCc2cccc3c(=O)c4ccc(Cl)cc4oc23)cc1,GI50,786-0,> 100 µM (inactive)
same,GI50,A498,> 100 µM (inactive)
same,GI50,A549,> 100 µM (inactive)
same,GI50,ACHN,> 100 µM (inactive)
same,GI50,BT-549,> 100 µM (inactive)
same,GI50,CAKI-1,> 100 µM (inactive)
same,GI50,CCRF-CEM,> 100 µM (inactive)
same,GI50,COLO 205,> 100 µM (inactive)
same,GI50,EKVX,> 100 µM (inactive)
same,GI50,HCC 2998,> 100 µM (inactive)
same,GI50,HCT-116,> 100 µM (inactive)
same,GI50,HCT-15,> 100 µM
same,GI50,HOP-62,> 100 µM (inactive)
same,GI50,HOP-92,2.5 µM (inactive)
same,GI50,IGROV-1,> 100 µM (inactive)
same,GI50,K562,> 100 µM (inactive)
same,GI50,KM12,> 100 µM (inactive)
same,GI50,LOX IMVI,> 100 µM (inactive)
same,GI50,M14,> 100 µM (inactive)
same,GI50,MCF7,> 100 µM (inactive)
same,GI50,MDA-MB-231,> 100 µM (inactive)
same,GI50,MDA-MB-435,> 100 µM (inactive)
same,GI50,MDA-N,> 100 µM (inactive)
same,GI50,MOLT-4,> 100 µM (inactive)
same,GI50,Malme-3M,> 100 µM (inactive)
same,GI50,NCI-H226,> 100 µM (inactive)
same,GI50,NCI-H23,> 100 µM (inactive)
same,GI50,NCI-H522,> 100 µM (inactive)
same,GI50,NCI/ADR-RES,> 100 µM (inactive)
same,GI50,OVCAR-3,> 100 µM (inactive)
same,GI50,OVCAR-4,> 100 µM (inactive)
same,GI50,OVCAR-5,> 100 µM (inactive)
same,GI50,OVCAR-8,> 100 µM (inactive)
same,GI50,PC-3,> 100 µM (inactive)
same,GI50,RPMI-8226,> 100 µM (inactive)
same,GI50,SF-295,> 100 µM (inactive)
same,GI50,SF-539,> 100 µM (inactive)
same,GI50,SK-MEL-28,> 100 µM (inactive)
same,GI50,SK-MEL-2,> 100 µM (inactive)
same,GI50,SK-MEL-5,> 100 µM (inactive)
same,GI50,SK-OV-3,> 100 µM (inactive)
same,GI50,SN12C,> 100 µM (inactive)
same,GI50,SNB-75,> 100 µM (inactive)
same,GI50,SR,> 100 µM (inactive)
same,GI50,SW-620,> 100 µM (inactive)
same,GI50,T47D,> 100 µM (inactive)
same,GI50,TK-10,> 100 µM (inactive)
same,GI50,U-251,> 100 µM (inactive)
same,GI50,UACC-257,> 100 µM (inactive)
same,GI50,UACC-62,> 100 µM (inactive)
same,GI50,UO-31,> 100 µM (inactive)
O=C(NNc1nc(-c2ccccc2)cs1)Nc1ccccc1,GI50,786-0,30.2 µM (inactive)
same,GI50,A549,19.5 µM (inactive)
same,GI50,ACHN,37.5 µM (inactive)
same,GI50,BT-549,25.3 µM (inactive)
same,GI50,CAKI-1,43.3 µM (inactive)
same,GI50,CCRF-CEM,34.3 µM (inactive)
same,GI50,COLO 205,19.6 µM (inactive)
same,GI50,DU-145,31.8 µM (inactive)
same,GI50,EKVX,32 µM (inactive)
same,GI50,HCC 2998,25.6 µM (inactive)
same,GI50,HCT-116,25.5 µM (inactive)
same,GI50,HCT-15,26.6 µM
same,GI50,HOP-62,18.7 µM (inactive)
same,GI50,HT-29,29 µM (inactive)
same,GI50,Hs-578T,28.9 µM (inactive)
same,GI50,IGROV-1,34.8 µM (inactive)
same,GI50,K562,34.4 µM (inactive)
same,GI50,KM12,32.9 µM (inactive)
same,GI50,M14,28.5 µM (inactive)
same,GI50,MCF7,25.3 µM (inactive)
same,GI50,MDA-MB-231,21.4 µM (inactive)
same,GI50,MDA-MB-435,22.2 µM (inactive)
same,GI50,MDA-N,24.2 µM (inactive)
same,GI50,MOLT-4,27.7 µM (inactive)
same,GI50,Malme-3M,39.5 µM (inactive)
same,GI50,NCI-H226,20.4 µM (inactive)
same,GI50,NCI-H23,20.2 µM (inactive)
same,GI50,NCI-H460,24 µM (inactive)
same,GI50,NCI/ADR-RES,20.7 µM (inactive)
same,GI50,OVCAR-3,13.9 µM (inactive)
same,GI50,OVCAR-4,28.7 µM (inactive)
same,GI50,OVCAR-5,29.4 µM (inactive)
same,GI50,OVCAR-8,22.7 µM (inactive)
same,GI50,PC-3,17.3 µM (inactive)
same,GI50,RPMI-8226,13.4 µM (inactive)
same,GI50,RXF 393,6.14 µM (inactive)
same,GI50,SF-268,27.5 µM (inactive)
same,GI50,SF-295,28.1 µM (inactive)
same,GI50,SK-MEL-28,30.4 µM (inactive)
same,GI50,SK-MEL-2,16.1 µM (inactive)
same,GI50,SK-MEL-5,20.7 µM (inactive)
same,GI50,SK-OV-3,22.6 µM (inactive)
same,GI50,SN12C,30.9 µM (inactive)
same,GI50,SNB-19,44.1 µM (inactive)
same,GI50,SNB-75,23.2 µM (inactive)
same,GI50,SW-620,37.6 µM (inactive)
same,GI50,T47D,23.2 µM (inactive)
same,GI50,TK-10,19.5 µM (inactive)
same,GI50,U-251,22.2 µM (inactive)
same,GI50,UACC-257,20.7 µM (inactive)
same,GI50,UACC-62,19.4 µM (inactive)
same,GI50,UO-31,25.4 µM (inactive)
O=C1OC(c2ccccc2)=N/C1=C\c1ccc(Br)cc1,GI50,786-0,> 100 µM (inactive)
same,GI50,A498,> 100 µM (inactive)
same,GI50,A549,> 100 µM (inactive)
same,GI50,ACHN,> 100 µM (inactive)
same,GI50,BT-549,> 100 µM (inactive)
same,GI50,CAKI-1,> 100 µM (inactive)
same,GI50,CCRF-CEM,26.4 µM (inactive)
same,GI50,COLO 205,> 100 µM (inactive)
same,GI50,DU-145,> 100 µM (inactive)
same,GI50,EKVX,> 100 µM (inactive)
same,GI50,HCC 2998,> 100 µM (inactive)
same,GI50,HCT-116,> 100 µM (inactive)
same,GI50,HCT-15,> 100 µM
same,GI50,HL-60,> 100 µM (inactive)
same,GI50,HOP-62,> 100 µM (inactive)
same,GI50,HOP-92,> 100 µM (inactive)
same,GI50,HT-29,> 100 µM (inactive)
same,GI50,Hs-578T,> 100 µM (inactive)
same,GI50,IGROV-1,> 100 µM (inactive)
same,GI50,K562,> 100 µM (inactive)
same,GI50,KM12,> 100 µM (inactive)
same,GI50,LOX IMVI,> 100 µM (inactive)
same,GI50,M14,> 100 µM (inactive)
same,GI50,MCF7,> 100 µM (inactive)
same,GI50,MDA-MB-231,> 100 µM (inactive)
same,GI50,MDA-MB-435,> 100 µM (inactive)
same,GI50,MDA-N,> 100 µM (inactive)
same,GI50,MOLT-4,94 µM (inactive)
same,GI50,Malme-3M,74.8 µM (inactive)
same,GI50,NCI-H226,> 100 µM (inactive)
same,GI50,NCI-H23,> 100 µM (inactive)
same,GI50,NCI-H460,> 100 µM (inactive)
same,GI50,NCI-H522,> 100 µM (inactive)
same,GI50,OVCAR-3,> 100 µM (inactive)
same,GI50,OVCAR-4,> 100 µM (inactive)
same,GI50,OVCAR-5,> 100 µM (inactive)
same,GI50,OVCAR-8,> 100 µM (inactive)
same,GI50,PC-3,> 100 µM (inactive)
same,GI50,RPMI-8226,96.6 µM (inactive)
same,GI50,RXF 393,> 100 µM (inactive)
same,GI50,SF-268,> 100 µM (inactive)
same,GI50,SF-295,> 100 µM (inactive)
same,GI50,SF-539,> 100 µM (inactive)
same,GI50,SK-MEL-28,> 100 µM (inactive)
same,GI50,SK-MEL-2,> 100 µM (inactive)
same,GI50,SK-MEL-5,> 100 µM (inactive)
same,GI50,SK-OV-3,> 100 µM (inactive)
same,GI50,SN12C,> 100 µM (inactive)
same,GI50,SNB-19,> 100 µM (inactive)
same,GI50,SNB-75,> 100 µM (inactive)
same,GI50,SR,66.2 µM (inactive)
same,GI50,SW-620,> 100 µM (inactive)
same,GI50,T47D,> 100 µM (inactive)
same,GI50,TK-10,> 100 µM (inactive)
same,GI50,U-251,> 100 µM (inactive)
same,GI50,UACC-257,> 100 µM (inactive)
same,GI50,UACC-62,> 100 µM (inactive)
